This note sets out measurements from PMC6642608, “Putative trehalose biosynthesis proteins function as differential floridoside-6-phosphate synthases to participate in the abiotic stress response in the red alga Pyropia haitanensis” (BMC Plant Biology, 2019).

Assay in all cases: HPLC-MS of products after alkaline phosphatase
What all share (assay type): biochemical
Settings in all cases: 100 mM UDP-galactose, 10 mM MgSO4, pH 8.0 protein buffer, 30 °C, 16 h

The target of one test is T1, PhTPS4 (Pyropia haitanensis, UniProt U3GP00).
T1 construct: E. coli BL21, pET-28a or pET-28a-sumo, His tag, sumo-His tag cut before assay; full-length ORF 1008 aa with N-terminal CBM20
T1 sequence (U3GP00 entry or part of it): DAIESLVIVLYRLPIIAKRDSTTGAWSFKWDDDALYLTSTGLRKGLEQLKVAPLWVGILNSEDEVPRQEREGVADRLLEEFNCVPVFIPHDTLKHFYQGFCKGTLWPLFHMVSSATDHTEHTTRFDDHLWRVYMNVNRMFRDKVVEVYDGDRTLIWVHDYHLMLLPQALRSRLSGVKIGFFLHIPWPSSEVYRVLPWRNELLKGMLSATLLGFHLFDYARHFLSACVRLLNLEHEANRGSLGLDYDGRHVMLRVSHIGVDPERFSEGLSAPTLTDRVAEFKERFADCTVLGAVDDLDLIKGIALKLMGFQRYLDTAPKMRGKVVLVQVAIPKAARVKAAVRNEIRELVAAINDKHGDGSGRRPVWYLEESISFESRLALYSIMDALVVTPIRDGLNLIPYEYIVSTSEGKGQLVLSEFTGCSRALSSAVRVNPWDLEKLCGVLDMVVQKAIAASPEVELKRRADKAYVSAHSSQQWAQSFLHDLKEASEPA

A further test addresses T2, PhTPS1 (Pyropia haitanensis, UniProt T1UQ24).
T2 construct: E. coli BL21, pET-28a or pET-28a-sumo, His tag, sumo-His tag cut before assay; full-length ORF 1154 aa

Another test deals with T3, PhTPS3 (Pyropia haitanensis, UniProt A0A0A7PA46).
T3 construct: E. coli BL21, pET-28a or pET-28a-sumo, His tag, sumo-His tag cut before assay; full-length ORF 1108 aa
T3 sequence (A0A0A7PA46 entry or part of it): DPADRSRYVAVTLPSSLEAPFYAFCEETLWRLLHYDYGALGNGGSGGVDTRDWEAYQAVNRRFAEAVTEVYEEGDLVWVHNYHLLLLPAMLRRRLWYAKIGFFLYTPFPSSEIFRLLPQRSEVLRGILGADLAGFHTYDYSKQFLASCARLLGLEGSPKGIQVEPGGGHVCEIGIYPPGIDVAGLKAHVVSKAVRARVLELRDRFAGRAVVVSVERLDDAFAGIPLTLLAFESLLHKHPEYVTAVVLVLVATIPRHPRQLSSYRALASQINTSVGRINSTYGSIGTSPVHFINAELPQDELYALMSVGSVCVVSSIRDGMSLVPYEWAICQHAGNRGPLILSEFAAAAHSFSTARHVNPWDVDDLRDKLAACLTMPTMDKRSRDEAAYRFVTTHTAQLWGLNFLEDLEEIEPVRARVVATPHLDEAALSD

T2 sequence (T1UQ24 entry or part of it): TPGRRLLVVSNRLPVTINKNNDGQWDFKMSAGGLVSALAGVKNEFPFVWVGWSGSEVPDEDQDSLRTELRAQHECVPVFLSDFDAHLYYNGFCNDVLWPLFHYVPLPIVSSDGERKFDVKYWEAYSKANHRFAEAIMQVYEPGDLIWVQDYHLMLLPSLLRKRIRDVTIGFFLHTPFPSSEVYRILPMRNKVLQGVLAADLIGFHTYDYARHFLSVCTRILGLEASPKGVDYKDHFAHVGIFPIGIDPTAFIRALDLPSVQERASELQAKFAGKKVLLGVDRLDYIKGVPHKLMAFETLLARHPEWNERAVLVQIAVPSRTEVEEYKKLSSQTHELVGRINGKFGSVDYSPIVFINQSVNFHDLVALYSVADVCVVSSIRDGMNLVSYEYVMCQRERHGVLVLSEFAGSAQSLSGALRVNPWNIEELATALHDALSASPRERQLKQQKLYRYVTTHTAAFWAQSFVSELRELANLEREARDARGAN

As for `O=P(O)(O)OC[C@H](O)CO` [G3P], the “HPLC-MS of products after alkaline phosphatase” value at PhTPS4 was “UDP-Gal and G3P were allowed to react with them”; at PhTPS1, “UDP-Gal and G3P were allowed to react with them”; at PhTPS3, “UDP-Gal and G3P were allowed to react with them”.
